Broadly, the IC50 is the concentration at which inhibition is half-maximal.

Positions of bridges follow the written chain, without caps; N, C: chain ends. Non-standard residues stand in square brackets, D forms with d. Residues, ends and D or L forms follow the SMILES beside them. *: point of attachment. hPhe(3-Cl-4-CF3) = N[C@@H](CCc1ccc(C(F)(F)F)c(Cl)c1)C(=O)O; NMePhe(4-CF3) = CN[C@@H](Cc1ccc(C(F)(F)F)cc1)C(=O)O; hPhe(4-CF3) = N[C@@H](CCc1ccc(C(F)(F)F)cc1)C(=O)O; 3Oxa8azabicyclo(3.2.1)octane = C1CC2COCC1N2*; NMePhe(4-Cl) = CN[C@@H](Cc1ccc(Cl)cc1)C(=O)O; NMePhe(4-Me) = CN[C@@H](Cc1ccc(C)cc1)C(=O)O; NMePhe(2-Cl) = CN[C@@H](Cc1ccccc1Cl)C(=O)O; NMeGly(cPent) = CN[C@H](C(=O)O)C1CCCC1; Phe(3-I) = N[C@@H](Cc1cccc(I)c1)C(=O)O; Phe(2-F) = N[C@@H](Cc1ccccc1F)C(=O)O; NMe3Pal = CN[C@@H](Cc1cccnc1)C(=O)O; NMeCha = CN[C@@H](CC1CCCCC1)C(=O)O; Ala(cPr) = N[C@@H](CC1CC1)C(=O)O; NMeI = CC[C@H](C)[C@H](NC)C(=O)O; NMeD = CN[C@@H](CC(=O)O)C(=O)O; NMeL = CN[C@@H](CC(C)C)C(=O)O; NMeV = CN[C@H](C(=O)O)C(C)C; d(β3hA) = C[C@@H](N)CC(=O)O; dPip = O=C(O)[C@H]1CCCCN1; NMeA = CN[C@@H](C)C(=O)O; NMeAib = CNC(C)(C)C(=O)O; Piperidide = C1CCN(*)CC1; dNMeA = CN[C@H](C)C(=O)O; Ac5c = NC1(C(=O)O)CCCC1; Aze = O=C(O)[C@@H]1CCN1; NcPrGly = O=C(O)CNC1CC1; Sar = CNCC(=O)O

For this experiment, the target named is T1, Kras and SOS1 (biotin-tagged human Kras loaded with GDP, His-tagged human SOS1) (Homo sapiens, UniProt P01116, G12D).
T1 construct: made in house; host or cells: E. coli (stated for Kras only)
T1 sequence (P01116 1-188 isoform P01116-2 G12D): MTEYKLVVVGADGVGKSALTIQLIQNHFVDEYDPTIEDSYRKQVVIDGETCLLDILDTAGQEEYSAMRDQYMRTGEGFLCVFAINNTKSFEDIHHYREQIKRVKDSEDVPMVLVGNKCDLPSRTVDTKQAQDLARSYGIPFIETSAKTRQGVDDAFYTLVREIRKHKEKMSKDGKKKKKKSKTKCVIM
In words: Protein-protein interaction inhibition between Kras and SOS1 (KrasGl2D-SOS PPI) using AlphaScreen. The format is binding. The conditions noted are these: AlphaScreen; biotin-tagged human Kras loaded with GDP, His-tagged human SOS1; read-out: KRAS G12D-SOS PPI IC50. The procedure, abridged: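 AlphaScreen format: Ni donor beads capture His-SOS1, streptavidin acceptor beads capture biotinylated Kras (E. coli-expressed, GDP-loaded post-purification). Excite 680 nm, read 520-620 nm.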
A general note: Bead proximity is the source of the signal in Alpha formats.
Regarding `CC[C@H](C)[C@@H]1NC(=O)[C@H](C(C)C)N(C)C(=O)C[C@@H](C)NC(=O)[C@H](CC(C)C)N(C)C(=O)C2(CCCC2)NC(=O)[C@H](CC(C)C)N(C)C(=O)[C@H](CCc2ccc(C(F)(F)F)cc2)NC(=O)CN(C)C(=O)[C@H](Cc2ccc(Cl)cc2)N(C)C(=O)CN(C)C(=O)[C@@H]2CCN2C1=O` [Compound 538] (cyclo([Ac5c][NMeL][d(β3hA)][NMeV]I[Aze][Sar][NMePhe(4-Cl)][Sar][hPhe(4-CF3)][NMeL])), the IC50 worked out at 110 nM.

For `CC[C@H](C)[C@@H]1NC(=O)[C@H](C)N(C)C(=O)C[C@@H](C)NC(=O)[C@H](C2CCCC2)N(C)C(=O)C2(CCCC2)NC(=O)[C@@H]2CCCN2C(=O)[C@H](CCc2ccc(C(F)(F)F)c(Cl)c2)NC(=O)[C@@H](C)N(C)C(=O)[C@H](Cc2ccccc2Cl)N(C)C(=O)CN(C)C(=O)CN(C)C1=O` [Compound 539] (cyclo([Ac5c][NMeGly(cPent)][d(β3hA)][NMeA]I[Sar][Sar][NMePhe(2-Cl)][dNMeA][hPhe(3-Cl-4-CF3)]P)), the IC50 is 190 nM. To `CC[C@H](C)[C@@H]1NC(=O)[C@H](CC(C)C)N(C)C(=O)C[C@@H](C)NC(=O)[C@H](C(C)C)N(C)C(=O)C2(CCCC2)NC(=O)[C@@H]2CCCN2C(=O)[C@H](CCc2ccc(C(F)(F)F)c(Cl)c2)NC(=O)CN(C)C(=O)[C@H](CC2CCCCC2)N(C)C(=O)CN(C)C(=O)CN(C2CC2)C1=O` [Compound 542] (cyclo([Ac5c][NMeV][d(β3hA)][NMeL]I[NcPrGly][Sar][NMeCha][Sar][hPhe(3-Cl-4-CF3)]P)) belongs 61 nM; to `CC[C@H](C)[C@@H]1NC(=O)[C@H](CC(C)C)N(C)C(=O)C[C@@H](C(=O)N2C3CCC2COC3)N(C)C(=O)[C@H]([C@@H](C)CC)N(C)C(=O)C2(CCCC2)NC(=O)[C@@H]2CCCN2C(=O)[C@H](CCc2ccc(C(F)(F)F)c(Cl)c2)NC(=O)CN(C)C(=O)[C@H](Cc2ccc(C(F)(F)F)cc2)N(C)C(=O)[C@@H]2CCN2C(=O)[C@H](C)N(C)C1=O` [Compound 545] ([NMeL]I[NMeA][Aze][NMePhe(4-CF3)][Sar][hPhe(3-Cl-4-CF3)]P[Ac5c][NMeI][NMeD]-{3Oxa8azabicyclo(3.2.1)octane}; lactam N-11), 1.1 nM. As to `CC[C@H](C)[C@@H]1NC(=O)[C@H](C)N(C)C(=O)C[C@@H](C)NC(=O)[C@H](C2CCCC2)N(C)C(=O)C2(CCCC2)NC(=O)[C@@H]2CCCN2C(=O)[C@H](CCc2ccc(C(F)(F)F)c(Cl)c2)NC(=O)CN(C)C(=O)[C@H](Cc2ccc(Cl)cc2)N(C)C(=O)[C@@H]2CCCN2C(=O)CN(C)C1=O` [Compound 549] (cyclo([Ac5c][NMeGly(cPent)][d(β3hA)][NMeA]I[Sar]P[NMePhe(4-Cl)][Sar][hPhe(3-Cl-4-CF3)]P)), the IC50 was determined as 4 nM. To `CC(C)C[C@H]1C(=O)N[C@@H](CC2CC2)C(=O)N(C)CC(=O)N(C)CC(=O)N(C)[C@@H](CC2CCCCC2)C(=O)N(C)CC(=O)N[C@@H](CCc2ccc(C(F)(F)F)c(Cl)c2)C(=O)N2CCC[C@H]2C(=O)NC2(CCCC2)C(=O)N(C)[C@@H](C(C)C)C(=O)N[C@H](C)CC(=O)N1C` [Compound 550] (cyclo([Ac5c][NMeV][d(β3hA)][NMeL][Ala(cPr)][Sar][Sar][NMeCha][Sar][hPhe(3-Cl-4-CF3)]P)) belongs 110 nM. To `CC[C@H](C)[C@@H]1NC(=O)[C@H](C)N(C)C(=O)C[C@@H](C(=O)N2CCCCC2)N(C)C(=O)[C@H](C(C)C)N(C)C(=O)C2(CCCC2)NC(=O)[C@@H]2CCCN2C(=O)[C@H](CCc2ccc(C(F)(F)F)c(Cl)c2)NC(=O)[C@H]2CCCCN2C(=O)[C@H](CC2CCCCC2)N(C)C(=O)[C@@H]2CCN2C(=O)CN(C)C1=O` [Compound 553] ([NMeA]I[Sar][Aze][NMeCha][dPip][hPhe(3-Cl-4-CF3)]P[Ac5c][NMeV][NMeD]-Piperidide; lactam N-11) belongs 27 nM; to `CC[C@H](C)[C@@H]1NC(=O)[C@H](CC(C)C)N(C)C(=O)C[C@@H](C(=O)N2CCCCC2)N(C)C(=O)[C@H](CC(C)C)NC(=O)C(C)(C)N(C)C(=O)[C@H](Cc2ccccc2F)NC(=O)[C@H](Cc2cccc(I)c2)NC(=O)CN(C)C(=O)[C@H](Cc2ccc(C)cc2)N(C)C(=O)CN(C)C(=O)CN(C)C1=O` [Compound 556] ([NMeL]I[Sar][Sar][NMePhe(4-Me)][Sar][Phe(3-I)][Phe(2-F)][NMeAib]L[NMeD]-Piperidide; lactam N-11), 30 nM.

In the case of `CC[C@H](C)[C@@H]1NC(=O)[C@H](CC(C)C)N(C)C(=O)C[C@@H](C(=O)N(C)C)N(C)C(=O)[C@H]([C@@H](C)CC)N(C)C(=O)[C@H](C)NC(=O)[C@H](Cc2cccnc2)N(C)C(=O)[C@H](CCc2ccc(C(F)(F)F)c(Cl)c2)NC(=O)CN(C)C(=O)[C@H](Cc2ccc(C)cc2)N(C)C(=O)[C@@H]2CCN2C(=O)[C@H](C)N(C)C1=O` [Compound 557] ([NMeL]I[NMeA][Aze][NMePhe(4-Me)][Sar][hPhe(3-Cl-4-CF3)][NMe3Pal]A[NMeI][NMeD]-NMe2; lactam N-11), the IC50 is 4.4 nM.

Source of the values: US12371454B2, “Cyclic peptide compound having Kras inhibitory action” (priority 2019, dated 2025).
